Counter-ions that a name gives are not always drawn.
Key:
[1] = test system: NCI-H292 lung cancer cells; assay: FDA drug screening, complete media vs cholesterol-free media with simvastatin (TABLE 2); assay type: cell-based, human; settings: for Cholesterol-free media + simvastatin (0.04 μM) / Complete Media: NCI-H292 cells
[2] = test system: NCI-H292 lung cancer cells; assay: FDA drug screening, complete media vs cholesterol-free media without statin (TABLE 1); assay type: cell-based, human
[3] = cholesterol-free media with simvastatin 0.04 μM, FDA drug library screen (TABLE 2)
[4] = complete media, FDA drug library screen (TABLE 2)
[5] = Complete minus Cholesterol-free, […]
[6] = NCI-H292 cells, cholesterol-free media without statin, FDA drug library screen
[7] = NCI-H292 cells, complete media, FDA drug library screen
[8] = FDA drug library screen, cholesterol-free media with simvastatin 0.04 μM
[9] = FDA drug library screen, complete media
[10] = complete media vs cholesterol-free media + simvastatin (0.04 μM), >0 enhanced anti-cancer activity, about 0 neutral, <0 antagonist
[11] = NCI-H292 cells, cholesterol-free media without statin
[12] = complete vs cholesterol-free media, greater than 0 enhanced anti-cancer activity, about 0 neutral, below 0 antagonists
[13] = complete media minus cholesterol-free media + simvastatin, >0 enhanced anti-cancer activity, about 0 neutral, <0 antagonist
[14] = Complete minus Cholesterol-free, greater than 0 enhanced anti-cancer activity, about 0 neutral, below 0 antagonist
[15] = NCI-H292 cells, FDA drug library screen, cholesterol-free media without statin
[16] = NCI-H292 cells, FDA drug library screen, complete media
[17] = cholesterol-free media with simvastatin 0.04 μM, cell growth value in FDA drug screen
[18] = complete media, cell growth value in FDA drug screen
[19] = Complete minus Cholesterol-free, >0 enhanced anti-cancer activity, about 0 neutral, <0 antagonist
[20] = complete media vs cholesterol-free media + simvastatin (0.04 μM), […]
[21] = complete media minus cholesterol-free media + simvastatin (0.04 μM), >0 enhanced anti-cancer activity, about 0 neutral, <0 antagonist
[22] = FDA library drug in cholesterol-free media with simvastatin 0.04 μM
[23] = drug in cholesterol-free media with simvastatin 0.04 μM
[24] = FDA library drug in complete media
[25] = Complete minus Cholesterol-free, greater than 0 enhanced anti-cancer activity, about 0 neutral, below 0 antagonists
[26] = NCI-H292 cells in cholesterol-free media without statin
[27] = NCI-H292 cells in complete media

| Compound | Cholesterol-free [2, 6] | Complete [2, 7] | Cholesterol-free media + simvastatin (0.04 μM) [1, 8] | Complete Media [1, 9] | Difference [1, 10] | Cholesterol-free [2, 11] | Complete ([2]; NCI-H292 cells, complete media) | Difference [2, 19] | further results |
| --- | --- | --- | --- | --- | --- | --- | --- | --- | --- |
| Vincristine (sulfate) | 0.04497 | 0.06722 | – | – | – | – | – | – | Cholesterol-free media + simvastatin (0.04 μM) [1, 3]: 0.1488; Complete Media [1, 4]: 0.1119; Difference ([1]; complete media minus cholesterol-free media + simvastatin (0.04 μM), […]): −0.04; Difference [2, 5]: 0.02 |
| c1cc(CN2CCCNCCNCCCNCC2)ccc1CN1CCCNCCNCCCNCC1 [Plerixafor] | – | – | 1.17 | 1.011 | −0.16 | 1.296 | 0.935 | – | Difference [2, 12]: −0.36 |
| CCN(CC)CC#CCOC(=O)C(O)(c1ccccc1)C1CCCCC1 (stereo not shown) [Oxybutynin] | – | – | 0.7436 | 1.133 | – | – | – | – | Difference [1, 13]: 0.39; Difference [2, 14]: −0.10; Cholesterol-free [2, 15]: 1.075; Complete [2, 16]: 0.9761 |
| CCOC(=O)N1CCC(=C2c3ccc(Cl)cc3CCc3cccnc32)CC1 [Loratadine] | – | – | – | – | – | 1.122 | 0.8264 | −0.30 | Cholesterol-free media + simvastatin (0.04 μM) [1, 17]: 0.8147; Complete Media [1, 18]: 0.9097; Difference [1, 13]: 0.10 |
| C[C@H]1O[C@H](OC2[C@@H](O)[C@@H](O)C(O)[C@H](O)[C@H]2O)[C@@H](N)C[C@@H]1N=C(N)C(=O)O.Cl.O (stereo partly shown) [Kasugamycin (hydrochloride hydrate)] | 1.256 | 1.194 | 1.288 | – | – | – | – | – | Difference [1, 20]: −0.14; Difference [2, 5]: −0.06 |
| CCCN[C@H]1CCc2nc(N)sc2C1 [Pramipexole (dihydrochloride hydrate)] | 0.8255 | 0.873 | 1.173 | 1.35 | – | – | – | 0.05 | Difference [1, 13]: 0.18 |
| Nc1ccn([C@@H]2O[C@H](CO)[C@@H](O)C2(F)F)c(=O)n1 [Gemcitabine] | 0.04572 | 0.01326 | – | – | – | – | – | −0.03 | Cholesterol-free media + simvastatin (0.04 μM) [1, 3]: 0.08143; Complete Media [1, 4]: 0.09095; Difference [1, 21]: 0.01 |
| Camostat (mesylate) | 0.6104 | 0.9828 | – | – | −0.30 | – | – | – | Cholesterol-free media + simvastatin (0.04 μM) [1, 22]: 1.328; Difference ([2]; complete vs cholesterol-free media, >0 enhanced anti-cancer activity, about 0 neutral, <0 antagonist): 0.37 |
| CC(C)(C)NCC(O)COc1cccc2c1CCC(=O)N2 (stereo not shown) [Carteolol hydrochloride] | – | – | – | – | −0.24 | – | – | – | Cholesterol-free media + simvastatin (0.04 μM) [1, 23]: 1.125; Complete Media ([1]; drug in complete media): 0.8865; Difference [2, 14]: −0.19; Cholesterol-free [2, 15]: 1.114; Complete [2, 16]: 0.9284 |
| CCc1c(Cl)c(O)c(Cl)c(O)c1C(=O)O[C@H]1[C@H](O)[C@H](OC)[C@H](OC/C2=C\C=C\C[C@H](O)/C(C)=C/[C@H](CC)[C@@H](O[C@@H]3OC(C)(C)[C@@H](OC(=O)C(C)C)[C@H](O)[C@@H]3O)/C(C)=C/C(C)=C/C[C@@H]([C@@H](C)O)OC2=O)O[C@@H]1C [Fidaxomicin] | – | – | – | – | −0.27 | – | – | – | Cholesterol-free media + simvastatin (0.04 μM) [1, 22]: 1.494; Complete Media [1, 24]: 1.227; Difference [2, 25]: −0.71; Cholesterol-free [2, 26]: 1.405; Complete [2, 27]: 0.6951 |
| Cc1cc(/C=C/C#N)cc(C)c1Nc1ccnc(Nc2ccc(C#N)cc2)n1 [Rilpivirine] | 0.8235 | 0.8865 | – | – | −0.50 | – | – | 0.06 | Cholesterol-free media + simvastatin (0.04 μM) [1, 22]: 1.859; Complete Media [1, 24]: 1.359 |
| CC1(C)CCC[C@](C)([C@H]2CC[C@]3(C)[C@@H]2[C@H](O)C[C@@H]2[C@@]4(C)CC[C@H](O)C(C)(C)[C@@H]4[C@@H](O)C[C@]23C)O1 [Panaxatriol] | – | – | 1.085 | 0.956 | – | – | – | – | Difference [1, 20]: −0.13; Difference [2, 5]: −0.09; Cholesterol-free [2, 15]: 1.136; Complete [2, 16]: 1.044 |
| C#C[C@]1(O)CC[C@H]2[C@@H]3CCC4=Cc5oncc5C[C@]4(C)[C@H]3CC[C@@]21C [Danazol] | 0.8249 | 0.7604 | 1.056 | 0.9458 | −0.11 | – | – | −0.06 | – |
| O=C1NC(c2ccccc2)(c2ccccc2)C(=O)N1COP(=O)(O)O [Fosphenytoin (disodium)] | – | – | – | – | −0.57 | – | – | – | Cholesterol-free media + simvastatin (0.04 μM) [1, 22]: 1.806; Complete Media [1, 24]: 1.233; Difference [2, 25]: −1.22; Cholesterol-free [2, 26]: 2.489; Complete [2, 27]: 1.268 |
| CC(=O)CCCCn1c(=O)c2c(ncn2C)n(C)c1=O [Pentoxifylline] | – | – | – | – | – | 1.143 | 0.8845 | −0.26 | Cholesterol-free media + simvastatin (0.04 μM) [1, 3]: 0.9442; Complete Media [1, 4]: 0.9268; Difference [1, 21]: −0.02 |
| CN1C(C(=O)Nc2ccccn2)=C(O)c2sc(Cl)cc2S1(=O)=O [Lornoxicam] | – | – | 1.072 | 0.9888 | −0.08 | 1.174 | 0.811 | – | Difference [2, 12]: −0.36 |
| CC(C)COCC(CN(Cc1ccccc1)c1ccccc1)N1CCCC1 (stereo not shown) [Bepridil (hydrochloride hydrate)] | – | – | 1.501 | 1.762 | – | 1.151 | 0.8961 | −0.25 | Difference [1, 13]: 0.26 |
| Oc1ncnc2[nH]ncc12 [Allopurinol] | – | – | – | – | – | 1.198 | 0.9095 | −0.29 | Cholesterol-free media + simvastatin (0.04 μM) [1, 17]: 0.8896; Complete Media [1, 18]: 0.9734; Difference [1, 13]: 0.08 |
| c1ccc(CC2=NCCN2)cc1 [Tolazoline (hydrochloride)] | – | – | – | – | −0.24 | 1.249 | 0.9982 | −0.25 | Cholesterol-free media + simvastatin (0.04 μM) [1, 23]: 1.363; Complete Media ([1]; drug in complete media): 1.126 |
| CCCCOC(=O)c1ccc(N)cc1 [Butamben] | – | – | – | – | −0.58 | 1.171 | 0.9712 | −0.20 | Cholesterol-free media + simvastatin (0.04 μM) [1, 22]: 1.665; Complete Media [1, 24]: 1.081 |
| C=CC(=O)Nc1cc(Nc2nccc(-c3cn(C4CC4)c4ccccc34)n2)c(OC)cc1N(C)CCN(C)C [Almonertinib] | – | – | 0.4298 | 0.2855 | −0.14 | 0.4646 | 0.2735 | −0.19 | – |
| CNC(=C[N+](=O)[O-])NCCSCc1ccc(CN(C)C)o1 [Ranitidine (hydrochloride)] | – | – | – | – | −0.45 | – | – | – | Cholesterol-free media + simvastatin (0.04 μM) [1, 22]: 1.27; Complete Media [1, 24]: 0.8219; Difference [2, 25]: −0.55; Cholesterol-free [2, 26]: 1.186; Complete [2, 27]: 0.6384 |

Source: patent US20250144067A1, “PERSONALIZED STARVATION THERAPY FOR CANCER” (Faeth Therapeutics, Inc., priority 2021, published 2025)
